This is an account of results in ChEMBL document CHEMBL1201862, “PubChem BioAssay data set” (2004).

Some test systems named below: HOP-18; M19-MEL; DMS-114; RXF 631; SNB-78; DMS-273; DLD-1; KM-20L2; XF498.
Holding throughout (experiment): DTP human tumour cell line panel, 48 h

Structures are written as SMILES.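 Exposure lasted 48 hours, with cells grown in 96-well plates and compounds tested at five concentrations. At the GI50, growth is halved.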 Active and inactive are the calls of the source. Rule as the data show it: active = GI50 up to about 1.1 µM and inactive = higher.

Regarding `CC12OC3(O)C4C5CC(C6C5C3C61)C42` (stereo not drawn), the GI50 in the experiment with HOP-18, in the experiment with M19-MEL, in the experiment on DMS-114, in the experiment with RXF 631, in the experiment on SNB-78 and in the experiment with DMS-273 was > 100 µM (inactive) in each case. The GI50 in the experiment on DLD-1 and in the experiment with KM-20L2 was > 100 µM (inactive) throughout.

Turning to `Cc1c(Cl)cccc1NC(=O)C(=O)C1C(=O)CC(C)(C)CC1=O`, the GI50 in the experiment with HOP-18, with M19-MEL, in the experiment with DMS-114, in the experiment on RXF 631, with SNB-78 and in the experiment on DMS-273 was > 100 µM (inactive) in each case. Further, the GI50 in the experiment with DLD-1 and in the experiment with KM-20L2 was > 100 µM (inactive) in each case.

Consider `CN(C)CCNC(=O)c1cccc2nc3c(ccc4ccccc43)nc12`, for which the GI50 (commonly the concentration that inhibits growth by half) is 6.53 µM (inactive) in the experiment on HOP-18; 1.56 µM (inactive) with M19-MEL; 2.69 µM (inactive) in the experiment on DMS-114; 1.02 µM (active) with RXF 631; 5.16 µM (inactive) in the experiment with SNB-78; 1.54 µM (inactive) in the experiment on DMS-273. For the same molecule, the GI50 in the experiment with DLD-1 is 1.79 µM (inactive); in the experiment on KM-20L2 it was 1.51 µM (inactive).

Consider `O=C(C(=O)c1cc2ccccc2[nH]1)c1cc2ccccc2[nH]1`, for which the GI50 is > 195 µM (inactive) with M19-MEL; > 220 µM (inactive) with DMS-114; > 176 µM (inactive) with XF498; > 347 µM (inactive) with RXF 631; > 347 µM (inactive) with SNB-78; > 318 µM (inactive) in the experiment with DMS-273. The GI50 in the experiment with DLD-1 is > 316 µM (inactive); in the experiment on KM-20L2, > 347 µM (inactive).

As for `O=c1[nH]c(=O)n(C2OC(CO)C(O)C2O)cc1OCc1ccccc1` (stereo not drawn), the GI50 in the experiment on HOP-18 was > 100 µM (inactive); in the experiment with M19-MEL it was > 95.5 µM (inactive); in the experiment on DMS-114, > 57.9 µM (inactive); in the experiment with XF498, > 100 µM (inactive); in the experiment on RXF 631, > 100 µM (inactive); in the experiment on SNB-78, > 100 µM (inactive). For the same molecule, the GI50 is > 75.9 µM (inactive) with DMS-273, > 59.8 µM (inactive) in the experiment with DLD-1 and > 81.7 µM (inactive) with KM-20L2.

As for `O=C(NCCO)c1ccc([N+](=O)[O-])cc1`, the GI50 with M19-MEL, in the experiment on DMS-114, with XF498, in the experiment with RXF 631, in the experiment with SNB-78 and in the experiment with DMS-273 was > 100 µM (inactive) in each case. The GI50 with DLD-1 and with KM-20L2 was > 100 µM (inactive) each time.

`C/C(CC(=O)Nc1ccc([N+](=O)[O-])cc1)=N\Nc1ccc([N+](=O)[O-])cc1[N+](=O)[O-]`: the GI50 is > 100 µM (inactive) with M19-MEL; 48.5 µM (inactive) with DMS-114; 86.7 µM (inactive) in the experiment on XF498; > 100 µM (inactive) with RXF 631; > 100 µM (inactive) in the experiment with SNB-78; 18.5 µM (inactive) with DMS-273. The GI50 was 39.4 µM (inactive) with DLD-1 and 32.8 µM (inactive) with KM-20L2.

For the molecule `COc1ccc(C2=Nc3ccccc3N=C(SC)C2)cc1`, the GI50 with HOP-18 was > 100 µM (inactive); with M19-MEL it was 39.8 µM (inactive); with DMS-114 it was 44.1 µM (inactive); with XF498, 37.8 µM (inactive); in the experiment on RXF 631, 47 µM (inactive); in the experiment with SNB-78, > 100 µM (inactive). Also, the GI50 in the experiment on DMS-273 is 73.6 µM (inactive); with DLD-1, 42.8 µM (inactive); in the experiment on KM-20L2 it was 41.3 µM (inactive).

On to `CCOP(=O)(OCC)C1CCCCOC1=O` (stereo not drawn), for which the GI50 in the experiment with HOP-18 is 44.2 µM (inactive); in the experiment on M19-MEL, > 100 µM (inactive); in the experiment with DMS-114, > 100 µM (inactive); with XF498, > 100 µM (inactive); in the experiment with RXF 631, > 100 µM (inactive); with SNB-78 it was > 100 µM (inactive). Besides, the GI50 with DMS-273, with DLD-1 and in the experiment on KM-20L2 was > 100 µM (inactive) in each case.

Consider `COc1cc2c(cc1OC)CC(=O)Nc1cc(OC)c(OC)cc1CC2`, for which the GI50 is > 100 µM (inactive) in the experiment with HOP-18; 31.8 µM (inactive) with M19-MEL; 24.3 µM (inactive) in the experiment on DMS-114; > 100 µM (inactive) with XF498; > 75.9 µM (inactive) with RXF 631; > 95.5 µM (inactive) with SNB-78. Besides, the figures for the GI50 with DMS-273, with DLD-1 and in the experiment on KM-20L2 were 24.8 µM (inactive), 40.3 µM (inactive) and 48.4 µM (inactive), respectively.

For the molecule `CCCCCCCCC(O)C#CC(N)=O` (stereo not drawn), the GI50 in the experiment with HOP-18 is 12.6 µM (inactive); with M19-MEL it was 11.8 µM (inactive); in the experiment on DMS-114, 3.34 µM (inactive); with XF498, 17.1 µM (inactive); in the experiment with RXF 631, 11.7 µM (inactive); in the experiment with SNB-78, 15.6 µM (inactive). For the same molecule, the GI50 in the experiment on DMS-273 is 7.28 µM (inactive); in the experiment on DLD-1, 10.2 µM (inactive); with KM-20L2 it was 15.6 µM (inactive).
